Here are results for two compounds from patent US20260325473A1, “N-Beta-Hydroxybutyryl-Amino Acids and Related Compositions and Methods” (The Board of Trustees of the Leland Stanford Junior …, priority 2023, published 2026).

SMILES strings stand for the structures. A value given as a limit tells only on which side of the number the result lay.

Data set [1] deals with food intake. The following applies: Li et al. 2022; cited from earlier work.
Data set [2] has as its system brain lysate proteins. As to the kind of experiment: Competition of X-Phe photoprobe-labeled brain proteins, quantitative shotgun proteomics. It counts as binding, mouse. How it is done: Shotgun proteomics of X-Phe photoprobe-labeled proteins. Brains from wild type C57BL/6J mice were harvested and homogenized using a bead blaster in PBS. Brain homogenate was centrifuged (15,000 rpm, 10 min) to yield the cytosolic supernatant and membrane pellet fractions. The cytosolic fraction was transferred to a new eppie and centrifuged again (15,000 rpm, 10 min). This process was repeated 4 times until no pellet was present after centrifugation. The membrane pellet was washed with 1 ml PBS and centrifuged (15,000 rpm, 10 min); this step was also repeated 4 times to remove any cytosolic protein contamination. After the centrifugation steps, the membrane pellet was re-suspended in PBS and sonicated. For competition experiments, brain lysate was normalized to 2 mg/ml in PBS and incubated with competitors at the indicated concentrations at room temperature for 30 minutes. 100 μM of the photoprobe was added and the reactions incubated on ice for 10 minutes protected from light. Reactions were then put under UV for 1 min on a UV Stratalinker. A biotin click reaction was performed by adding the following reagents to the indicated final concentrations: […], 1 mM CuSO4, 1 mM TCEP (freshly prepared), 30 μM Biotin-N3. Reactions were allowed to proceed for 1 hour at room temp, protected from light, and while rotating. The following prep was adapted from Niphakis et al. 2015. To each reaction, the following solvents were added in order, 4 ml cold methanol, 1 ml cold chloroform, 2 ml cold PBS. The mixture was vortexed well and centrifuged (4,600×g, 15 min, 4° C.). After centrifugation the organic and aqueous layers were removed without disruption of the protein disc. The protein disc was washed with a cold 1:1 mixture of methanol:chloroform 3 times. After the final wash, the protein disc was re-suspended in a 4:1 mixture of methanol:chloroform and sonicated. The insoluble protein was pelleted by centrifugation (4,600×g, 15 min, 4 C) and the pellet re-suspended in freshly prepared 500 μl of 6 M urea in PBS. 20 μl of 10% (w/v) SDS was added to the solution. The solution was then warmed in a 37 C water bath for 10 min to help dissolve poorly soluble protein. A streptavidin pulldown was the performed on the protein mixture. 250 μl of streptavidin beads were washed 3 times with 1 ml PBS. Protein samples were diluted with 5.5 ml of 0.25% SDS in PBS and incubated with streptavidin beads for 1.5 hr at room temperature. Following incubation, beads were washed 5 times each with 0.25% SDS in PBS, then PBS, then lastly with ultra-pure water Steptavidin beads were suspended in 150 μL resuspension buffer (1 M urea, 50 mM Tris-HCl, pH 8). Proteins were digested with 3 μg of trypsin for 4 hours. Digested peptides were reduced with 5 mM TCEP for 10 minutes. Cys residues were alkylated using 15 mM iodoacetimide (IAA) for 20 minutes. Finally, excess IAA was quenched with 10 mM DTT. Acidified digested peptides were desalted over C18 StageTips [PMID: 12585499]. Peptides were then eluted with 80% acetonitrile, 0.1% TFA and dried in a speedvac. Dried samples were reconstituted with 200 mM EPPS buffer, pH 8.0, and labelled with TMT reagents (Thermo Fisher Scientific). Following incubation at room temperature for 2 h, the reactions were quenched with hydroxylamine to a final concentration of 0.5% (v/v). […]

Data set [3] has as its target T1, CNDP2 (Mus musculus, UniProt Q9D1A2).
T1 sequence (Q9D1A2 1-475): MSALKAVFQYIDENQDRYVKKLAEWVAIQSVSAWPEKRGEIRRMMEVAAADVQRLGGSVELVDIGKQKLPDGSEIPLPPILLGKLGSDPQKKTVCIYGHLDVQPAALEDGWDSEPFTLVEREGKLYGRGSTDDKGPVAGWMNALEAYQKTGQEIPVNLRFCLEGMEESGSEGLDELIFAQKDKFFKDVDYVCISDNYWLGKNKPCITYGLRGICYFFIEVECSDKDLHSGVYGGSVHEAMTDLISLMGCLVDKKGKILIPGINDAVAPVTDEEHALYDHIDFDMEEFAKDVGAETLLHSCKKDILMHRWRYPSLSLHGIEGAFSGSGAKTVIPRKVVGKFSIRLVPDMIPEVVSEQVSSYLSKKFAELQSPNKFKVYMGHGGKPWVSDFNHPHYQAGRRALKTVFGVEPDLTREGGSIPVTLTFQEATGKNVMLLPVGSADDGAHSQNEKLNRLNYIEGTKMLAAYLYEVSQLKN
As to the kind of experiment: In vitro synthase (condensation) activity, lysates of CNDP2-transfected HEK293T cells. It counts as biochemical. Also noted: expressed in transfected cells; host or cells: HEK293T (lysate). The following applies: role: product; lactate and BHB at varying concentrations, phenylalanine 20 mM. How it is done: In vitro enzyme activity assays. HEK293T cells were transfected with GFP, CNDP2 or CNDP2-E166A using PolyFect (Qiagen 301105) according to the manufacturer's instructions. The medium was changed one day post-transfection. After an additional 24 h, the cells were harvested in PBS, lysed by sonication and centrifuged (10 min at 15,000 rpm) to remove debris. Supernatant was collected and protein concentrations were adjusted. The in vitro reactions were conducted in Eppendorf tubes with 100 μL of 1 mg/mL protein and 20 mM substrates for keto amino acid synthase activity assays and. Reactions were incubated for 1 h at 37° C. and 20 μl of 1 M HCl were added to acidify the medium and to protonate keto amino acids. Reactions were vortexed and 400 μL of ethyl acetate were added to each reaction. Reactions were vortexed for 30 s to extract keto amino acids into the organic layer and centrifuged at 4° C. for 10 min at 15,000 r.p.m. A total of 300 μl from the top layer was transferred to a new Eppendorf tube and dried down under a stream of nitrogen. The residue was re-suspended in 150 μl of an 2:1:1 mixture of acetonitrile: methanol: water. The mixture was centrifuged at 4° C. for 10 min at 15,000 r.p.m. and the supernatant was transferred to a LC-MS vial.

Data set [4] has as its target T1, CNDP2. The conditions noted are these: Li et al. 2022; cited from earlier work.
Data set [5] can be described thus: Metabolite quantitation in mouse plasma (QQQ-LC/MS). It counts as in vivo. The procedure:
Preparation of plasma samples for LC-MS analysis. Plasma was collected from mice via a submandibular bleed into lithium heparin tubes (BD, 365985) and immediately transferred onto ice. The blood was centrifuged at 4° C. at 5000 rpm for 5 min and the top layer of plasma was aliquoted and frozen at −80 °C. To extract polar metabolites from plasma for LC-MS analysis, 150 μl of a 2:1 mixture of acetonitrile/methanol was added to 50 μl of plasma. The mixture was centrifuged at 4° C. for 10 min at 15,000 rpm and the supernatant was transferred to a LC-MS vial.
Targeted metabolomics. Targeted measurements were performed using an Agilent 6470 triple quadrupole LC-MS instrument. MS analysis was performed using AJS in negative mode. The AJS source parameters were set as follows: the dry gas temperature was set at 250° C. with a gas flow of 12 l/min and the nebulizer pressure at 25 psi; the sheath gas temperature was set to 300° C. with the sheath gas flow set at 12 l/min; and the capillary voltage was set to 3,500 V. Separation of polar metabolites was performed as described above in the ‘Untargeted measurements of metabolites by LC-MS’ section. Multiple reaction monitoring was performed for the indicated metabolites with the listed dwell times, fragmentor voltage, collision energies, cell accelerator voltages and polarities. Quantification of the endogenous metabolite concentrations were performed by generating a standard curve with known concentrations of each metabolite. Metabolite standards were analyzed alongside the plasma samples using the same targeted triple quadrupole LC/MS method. A calibration standard curve generated from the metabolite standard concentrations and total peak areas were used to calculate the concentrations of each endogenous metabolite. The dilution of the plasma during the sample preparation was also taken into account for the quantification.

The target in data set [6] is T1, CNDP2. As to the kind of experiment: In vitro synthase (condensation) activity, lysates of CNDP2-transfected HEK293T cells. It counts as biochemical. Details: expressed in transfected cells; host or cells: HEK293T (lysate). The following applies: role: substrate; organic acids 1 mM with 10 mM phenylalanine.

`C[C@H](O)C(=O)N[C@@H](Cc1ccccc1)C(=O)O` [Lac-Phe, N-lactoyl phenylalanine]: the food intake result in data set [1] is “suppresses food intake”. Besides, in data set [2] (100 μM photoprobe, 50-fold excess competitor), the “competition of X-Phe photoprobe-labeled proteins” value was > 80%. In data set [2] (50-fold excess Lac-Phe), the “number of the 32 Keto-Phe targets also >80% competed by Lac-Phe” value is on record as 30 out of 32 and the “share of the 32 Keto-Phe targets also >80% competed by Lac-Phe” value is 94%. Besides, the “products formed from combined lactate and BHB” value in data set [3] was “simultaneous production”. Moreover, the “Lac-Phe levels upon genetic ablation of CNDP2” value in data set [4] is given as “dramatically reduces Lac-Phe levels”. In data set [5] (15 min running), the “elevation after acute treadmill running” value came to 8 fold. Further, the “effect of ketone ester administration on level” value in data set [5] (30 min after ketone drink, 3 mg/g) was “without affecting Lac-Phe levels”. Moreover, the “effect of strenuous and prolonged exercise on level” value in data set [5] (30 min strenuous running) is on record as “robust co-induction”.
For the compound `CC(=O)O` [acetate], the “CNDP2 activity towards organic acid substrates” value in data set [6] is “unable to accept”.
